Patent US20120328735A1, “PROCESS FOR PREPARING CASEIN-DERIVED PEPTIDES BY FERMENTATION OF LACTIC ACID BACTERIA” (priority 2011, published 2012)
Ends that are not written are not given here.

Key:
[1] = tested on: scopolamine-induced amnesia; test: Y-shaped maze test, spontaneous alternation behavior, scopolamine-induced amnesia; type: in vivo; settings: male ddY mice, scopolamine 1 mg/kg s.c.
Experimental: Male ddY mice (about 7 weeks old) were used (n=15 to 75), and provided with food and water ad libitum. Asn-Ile-Pro-Pro-Leu-Thr-Gln-Thr-Pro-Val-Val-Val-Pro-Pro-Phe-Leu-Gln-Pro-Glu (SEQ ID NO: 1) was used as a test substance in amounts of 0.05 nmol/kg body weight (0.1 μg/kg body weight), 0.5 nmol/kg body weight (1 μg/kg body weight), 1.5 nmol/kg body weight (3 μg/kg body weight), 5 nmol/kg body weight (10 μg/kg body weight), 50 nmol/kg body weight (100 μg/kg body weight), and 500 nmol/kg body weight (1,000 μg/kg body weight). The test substance was administered as a single dose orally to mice 60 minutes before performing a Y-shaped maze test for evaluating spontaneous alternation behavior. Thirty minutes before performing the Y-shaped maze test, scopolamine was subcutaneously administered in an amount of 1 mg/kg body weight into the back to induce brain dysfunction (memory disorder and/or cognition disorder) in mice. In the Y-shaped maze test, as an experiment device, a Y-shaped maze was used in which the length for each arm was 40 cm; the wall height was 12 cm; the floor width was 3 cm; the upper part width was 10 cm; and three arms were connected to each other at an angle of 120°. Each mouse was placed in the end of any of the arms of the Y-shaped maze and allowed to explore freely in the maze over 8 minutes, and the sequence of the arms to which the mouse moved was recorded. The number of movements of the mouse to the arms within the measurement time was counted and used as the total number of entries; in the sequence, the combination in which three different arms were selected in succession (for example, with the three arms respectively called A, B, and C, if the sequence of the aims entered is ABCBACACB, the count is 4 inclusive of overlapping) was investigated, and the count number was used as the number of spontaneous alternation behaviors. The change in spontaneous alternation behavior (%) was calculated by dividing the number of spontaneous alternation behaviors by a number obtained by subtracting 2 from the total number of entries, and multiplying the resultant number by 100, and the percentage was used as an indicator of the spontaneous alternation behavior. […] The measured values were expressed as mean±standard error for each group. The significance of difference between the control group and the scopolamine control group was tested by Student's t-test. The significance of difference between the scopolamine control group and the peptide-administered group was tested by Dunnett's multiple comparison test after one-way analysis of variance.
Male ddY mice (about 7 weeks old) were used (n=15 to 45), and provided with food and water ad libitum. As test substances, Asn-Ile-Pro-Pro-Leu-Thr-Gln-Thr-Pro-Val-Val-Val-Pro-Pro-Phe-Leu-Gln-Pro-Glu (SEQ ID NO: 1) at 50 nmol/kg body weight (100 μg/kg body weight), or […]([…]; SEQ ID NO: 2) at 50 nmol/kg body weight (120 μg/kg body weight), or Ile-Pro-Pro-Leu-Thr-Gln-Thr-Pro-Val-Val-Val-Pro-Pro-Phe-Leu-Gln-Pro-Glu (IPPLTQTPVVVPPFLQPE; SEQ ID NO: 7) at 50 nmol/kg body weight (100 μg/kg body weight), or Asn-Ile-Pro-Pro-Leu-Thr-Gln-Thr-Pro-Val-Val-Val-Pro-Pro-Phe-Leu-Gln-Pro (NIPPLTQTPVVVPPFLQP; SEQ ID NO: 8) at 50 nmol/kg body weight (100 μg/kg body weight), or Thr-Gln-Thr-Pro-Val-Val-Val-Pro-Pro-Phe (TQTPVVVPPF; SEQ ID NO: 9) at 50 nmol/kg body weight (50 μg/kg body weight) were used. The percentage of change in the spontaneous alternation behavior was determined as described in Example 4, and used as an indicator of the spontaneous alternation behavior. The measured values were expressed as mean±standard error for each group. The significance of difference between the control group and the scopolamine control group was tested by Student's t-test. The significance of difference between the scopolamine control group and each peptide-administered group was tested by Dunnett's multiple comparison test after one-way analysis of variance. […]

memory retention = test: novel object recognition test for evaluating memory retention; type: in vivo; settings: male ddY mice; single oral dose 500 nmol/kg body weight (1,000 μg/kg) 60 min before training trial; retention trial 48 hours later; FIG. 5
Experimental: Male ddY mice (about 7 weeks old) were used (n=14 to 15), and provided with food and water ad libitum. As a test substance, 500 nmol/kg body weight (1,000 μg/kg body weight) of Asn-Ile-Pro-Pro-Leu-Thr-Gln-Thr-Pro-Val-Val-Val-Pro-Pro-Phe-Leu-Gln-Pro-Glu (SEQ ID NO: 1) was used. The test substance was administered as a single dose orally to mice 60 minutes before performing a novel object recognition test for evaluating memory retention. In the novel object recognition test, a 30×30×30 cm box was used as an experiment device. As a conditioning operation, a mouse was placed in an experiment device in which a floorcloth was laid for 5 minutes, and allowed to explore freely in the device. A training trial was performed the day following the conditioning operation. […] Sixty minutes after orally administering the test substance or water, a mouse was placed in the experiment device for 5 minutes, and the time (second) was measured during which the mouse explored by approaching each object to be within 1 cm therefrom. […] (However, the state in which a mouse rides on an object is excluded.) The percentages of the times were determined during which two objects were explored in each of the training trial and the retention trial. The percentage (%) of the exploration time for each object was expressed as mean±standard error for each of the groups. […]

[2] = single oral dose 50 nmol/kg body weight, vs scopolamine control group, FIG. 3, FIG. 6
[3] = single oral dose 500 nmol/kg body weight, vs scopolamine control group, FIG. 4, FIG. 7, FIG. 9

IPPLTQTPVVVPPFLQPE [SEQ ID NO: 7]
amnesia-preventing action (change in spontaneous alternation behavior) [1, 2]: shown to have amnesia-preventing actions

LQSWMHQPHQPLPPTVMFPPQSVL [SEQ ID NO: 4]
amnesia-preventing action (change in spontaneous alternation behavior) [1, 3]: shown to have amnesia-preventing actions

LTQTPVVVPPFLQPE [SEQ ID NO: 13]
amnesia-preventing action (change in spontaneous alternation behavior) [1, 3]: shown to have amnesia-preventing actions

MHQPHQPLPPTVMFPPQSVL [SEQ ID NO: 16]
amnesia-preventing action (change in spontaneous alternation behavior) [1, 3]: shown to have amnesia-preventing actions

NIPPLTQTPVVVPPFLQP [SEQ ID NO: 8]
amnesia-preventing action (change in spontaneous alternation behavior) [1, 2]: significant difference compared to the scopolamine control group could not be confirmed

NIPPLTQTPVVVPPFLQPE [SEQ ID NO: 1]
memory-enhancing action (percentage of exploration time for novel object) (memory retention): shown to have a memory-enhancing action
amnesia-preventing action (change in spontaneous alternation behavior) [1, 2]: shown to have amnesia-preventing actions
amnesia-preventing action (change in spontaneous alternation behavior) [1, 3]: shown to have amnesia-preventing actions
amnesia-preventing action (change in spontaneous alternation behavior) ([1]; single oral dose 60 min before test, 0.05 nmol/kg body weight to 500 nmol/kg body weight (0.1 to 1,000 μg/kg), FIG. 2): shown to have an amnesia-preventing action

NIPPLTQTPVVVPPFLQPEVM [SEQ ID NO: 2]
amnesia-preventing action (change in spontaneous alternation behavior) [1, 2]: shown to have amnesia-preventing actions

PLTQTPVVVPPFLQPE [SEQ ID NO: 12]
amnesia-preventing action (change in spontaneous alternation behavior) [1, 3]: shown to have amnesia-preventing actions

PPLTQTPVVVPPFLQPE [SEQ ID NO: 10]
amnesia-preventing action (change in spontaneous alternation behavior) [1, 3]: shown to have amnesia-preventing actions

PVVVPPFLQPE [SEQ ID NO: 14]
amnesia-preventing action (change in spontaneous alternation behavior) [1, 3]: shown to have amnesia-preventing actions

SWMHQPHQPLPPTVMFPPQ [SEQ ID NO: 17]
amnesia-preventing action (change in spontaneous alternation behavior) [1, 3]: significant difference could not be confirmed

SWMHQPHQPLPPTVMFPPQSVL [SEQ ID NO: 3]
amnesia-preventing action (change in spontaneous alternation behavior) ([1]; single oral dose 150 nmol/kg body weight to 500 nmol/kg body weight (380 to 1,280 μg/kg), FIG. 8): shown to have an amnesia-preventing action
amnesia-preventing action (change in spontaneous alternation behavior) [1, 3]: shown to have amnesia-preventing actions

TQTPVVVPPF [SEQ ID NO: 9]
amnesia-preventing action (change in spontaneous alternation behavior) [1, 2]: significant difference compared to the scopolamine control group could not be confirmed

TQTPVVVPPFLQPE [SEQ ID NO: 11]
amnesia-preventing action (change in spontaneous alternation behavior) [1, 2]: shown to have an amnesia-preventing action

VVVPPFLQPE [SEQ ID NO: 15]
amnesia-preventing action (change in spontaneous alternation behavior) [1, 3]: shown to have amnesia-preventing actions
